One data set deals with SARS-CoV-2 M^pro (Severe acute respiratory syndrome coronavirus 2, UniProt P0DTD1). In words: SARS-CoV-2 M^pro inhibition assay (FRET substrate). The class given is biochemical. The following applies: for pIC50 / pKi: 0.2 μM enzyme, 20 μM substrate, pH 7, DMSO 2.5%; for pIC50: equivalent to Ki^app; for pKi: intrinsic inhibition constant; for anti-M^pro inhibitory activity (in words): first-line screening at 100 μM. Here is the method: A continuous assay based on Förster resonance energy transfer (FRET) to measure in vitro the catalytic activity of M^pro was implemented by using the substrate (Dabcyl)KTSAVLQSGFRKME(Edans)-NH2 (Biosyntan GmbH, Berlin, Germany) The enzymatic reaction was initiated by adding substrate at 20 μM (final concentration) to the enzyme at 0.2 μM (final concentration) in a final volume of 100 μL. The reaction buffer was sodium phosphate 50 mM, pH 7, NaCl 150 mM, and DMSO 2.5%. Fluorescence emission was measured in a FluoDia T70 microplate reader (Photon Technology International, Birmingham, NJ, USA) for 20 min (excitation wavelength, 380 nm; emission wavelength, 500 nm). The initial slope of the time evolution curve of the fluorescence emission signal provided a direct quantification of the enzymatic activity.
The in vitro inhibition potency of the compounds against M^pro was assessed through the estimation of the inhibition constant, Ki, and the half-maximal inhibitory concentration, IC50, from experimental inhibition curves. Inhibition curves were obtained by measuring the enzyme activity (at fixed 0.2 μM enzyme concentration and fixed 20 μM substrate concentration) as a function of compound concentration (serial 2-fold dilution from 125 µM to 0 μM), maintaining the percentage of DMSO (2.5%) constant. The enzymatic activity was quantitated as the initial slope of the substrate fluorescence emission time evolution curve, and was plotted as a function of compound concentration. The ratio between the activity (slope) in the presence and absence of the compound provides the residual percentage of activity at a given compound concentration. Nonlinear regression analysis employing a simple inhibition model (considering inhibitor depletion due to enzyme binding) allowed us to estimate the apparent inhibition constant, Ki^app, for each compound according to Equation (1):(1) [EI]=1/2([I]T+[E]T+Kiapp−([I]T+[E]T+Kiapp)^2−4[E]T[I]T)[I]=[I]T−[EI]=1/2([I]T−[E]T−Kiapp+([I]T+[E]T+Kiapp)^2−4[E]T[I]T)v([I])/v([I]=0)=1−[EI]/[E]T=1/1+[I]/Kiapp, where [EI] is the concentration of the enzyme–inhibitor complex, [E]T and [I]T are the total concentrations of the enzyme and the inhibitor, Ki^app is the apparent inhibition constant for the inhibitors (quercetin and derivatives), [I] is the concentration of the free inhibitor, and v is the initial slope of the enzymatic activity trace at a given (free) inhibitor concentration [I] (or total inhibitor concentration [I]T). No approximation for the free inhibitor concentration (e.g., assuming to be equal to the total inhibitor concentration) was made, thus having general validity for any total enzyme and inhibitor concentration and any value of the inhibition constant (even for tight-binding inhibitors). In addition, if the inhibitor acts through a purely competitive mechanism, the previous equation can be substituted by Equation (2):(2) v([I])/v([I]=0)=1/1+[I]/Kiapp=1/1+[I]/Ki(1+[S]/Km), where Ki is the intrinsic (i.e., substrate concentration-independent) inhibition constant, Km is the Michaelis–Menten constant for the enzyme–substrate interaction, and [S] is the substrate concentration. Because Km and [S] are known, the intrinsic inhibition constant can be determined. Furthermore, approximating the free compound concentration by the total compound concentration and neglecting ligand depletion, the Ki^app in Equation (2) is equivalent to the IC50, as reported in Table 3. However, it should be emphasized that the IC50 is an assay-dependent inhibition potency index (among other parameters, it depends on the enzyme and substrate concentrations, as well as on the Km); thus, the intrinsic inhibition constant is a better inhibition potency index. Uncertainties have been reported as 95% profile likelihood asymmetric confidence intervals, as especially recommended for equilibrium constants (i.e., binding association/dissociation constants and inhibition constants).

Data set [1] relates to SARS-CoV-2. In words: Inhibition of SARS-CoV-2 replication in Vero cells by RT-qPCR. The following applies: Vero cells; Figure S1. The format is cell-based. (In qPCR the cycle at which signal appears reflects the starting amount.)
The subject of data set [2] is SARS-CoV-2. The following applies: for Inhibition of the virus-caused cytopathic effect (CPE) / toxicity in the cellular infection model (in words): Vero cells; for Inhibition of the virus-caused cytopathic effect (CPE): 2 days; for SARS-CoV-2-related CPE reduction (in words): tested at 100, 75, 50, 25 and 10 µM, judged at non-toxic concentrations; for toxicity in the cellular infection model (in words) / precipitation in the medium (in words): 100-10 µM; for precipitation in the medium (in words): culture medium.

Structures are written as SMILES. pIC50, pKi: −log10 of the molar value. Where two headings read alike, the source gives them in different places.

In general, melting point refers to the temperature, or range, at which the solid turns liquid. One may read the pIC50 as −log10 of the IC50, conventionally taken in molar units. The term pKi denotes the negative decadic logarithm of the Ki, by convention in mol/L.

Regarding `Cc1cc(C)c([Se]CCOc2cc(O)c3c(=O)cc(-c4ccccc4)oc3c2)c(C)c1`, the melting point is 135.7 to 138.4 °C.
The same measure, in the same setting: under `Cc1ccccc1[Se]CCOc1cc(O)c2c(=O)cc(-c3ccccc3)oc2c1` stands 123.9 to 127.4 °C; under `O=c1cc(-c2ccccc2)oc2cc(OCC[Se]c3ccc(F)cc3)cc(O)c12`, 171.1 to 173.7 °C.
Compound `O=c1cc(-c2ccccc2)oc2cc(OCC[Se]c3cccc(C(F)(F)F)c3)cc(O)c12` gave a melting point of 154.1 to 157.7 °C.
Take `COc1ccccc1[Se]CCOc1cc(O)c2c(=O)cc(-c3ccccc3)oc2c1`: the melting point lay in the range of 132.9 to 135.6 °C.
`O=c1cc(-c2ccccc2)oc2cc(OCC[Se]Cc3ccccc3)cc(O)c12` yielded a melting point of 115.4 to 118.2 °C.
`O=c1c(O)c(-c2ccc(O)c(O)c2)oc2c([Se]c3ccccc3)c(O)cc(O)c12` [2a, 2-(3,4-Dihydroxyphenyl)-3,5,7-trihydroxy-8-(phenylselanyl)-4H-chromen-4-one] came in with a melting point of 211 to 213 °C. For the same compound, at SARS-CoV-2 M^pro, the pIC50 is 5.29 and the pKi was 5.74. Moreover, the “inhibition of SARS-CoV-2 replication by RT-qPCR (in words)” value in the data set with SARS-CoV-2 [1] was “did not indicate any inhibition”. For the same compound, the “Inhibition of the virus-caused cytopathic effect (CPE)” value (“Inhibition … (CPE)” below) in the data set with SARS-CoV-2 [2] (10 µM) is “-”. For the same compound, in the data set with SARS-CoV-2 [2] (25 µM), the “Inhibition … (CPE)” value was “-”. Further, the “Inhibition … (CPE)” value with SARS-CoV-2 [2] (50 µM) was “+”. In addition, the “Inhibition … (CPE)” value in the data set on SARS-CoV-2 [2] (75 µM) is reported as “tox”. Also, the “Inhibition … (CPE)” value in the data set on SARS-CoV-2 [2] (100 µM) is on record as “tox”. Moreover, the “SARS-CoV-2-related CPE reduction (in words)” value in the data set on SARS-CoV-2 [2] is given as “inhibited the development of the CPE”.
Regarding `CCCCCCCCCC[Se]c1c(O)cc(O)c2c(=O)c(O)c(-c3ccc(O)c(O)c3)oc12` [2b, 2-(3,4-Dihydroxyphenyl)-3,5,7-trihydroxy-8-(decylselenyl)-4H-chromen-4-one], the melting point was in the range of 155 to 159 °C. Further, on SARS-CoV-2 M^pro, the negative-log IC50 (pIC50) was under 4.00, the pKi is under 4.00 and the “anti-M^pro inhibitory activity (in words)” value is reported as “devoid of any noticeable anti-M^pro inhibitory activity”.
In the case of `CCCC[Se]c1c(O)cc(O)c2c(=O)c(O)c(-c3ccc(O)c(O)c3)oc12` [2c, 2-(3,4-Dihydroxyphenyl)-3,5,7-trihydroxy-8-(butylselenyl)-4H-chromen-4-one], the melting point was 159 to 163 °C. Besides, on SARS-CoV-2 M^pro, the pIC50 is 4.62 and the pKi is 5.07.
With `COc1ccc([Se]c2c(O)cc(O)c3c(=O)c(O)c(-c4ccc(O)c(O)c4)oc23)cc1` [2e, 2-(3,4-Dihydroxyphenyl)-3,5,7-trihydroxy-8-((4-methoxyphenyl)selanyl)-4H-chromen-4-one], the melting point was in the range of 194 to 197 °C. For the same compound, on SARS-CoV-2 M^pro, the pIC50 is 5.52 and the pKi is 5.96. Besides, the “Inhibition … (CPE)” value with SARS-CoV-2 [2] (10 µM) was “-”. In addition, in the data set with SARS-CoV-2 [2] (25 µM), the “Inhibition … (CPE)” value is reported as “-”. Further, the “Inhibition … (CPE)” value in the data set on SARS-CoV-2 [2] (50 µM) is listed as “tox/-”. In addition, the “Inhibition … (CPE)” value with SARS-CoV-2 [2] (75 µM) is “tox”. Further, in the data set on SARS-CoV-2 [2] (100 µM), the “Inhibition … (CPE)” value was “tox”.
Take `O=c1cc(-c2ccccc2)oc2cc(OCC[Se]c3ccccc3)cc(O)c12` [7a, 5-Hydroxy-2-phenyl-7-(2-(phenylselanyl)ethoxy)-4H-chromen-4-one]: the melting point is 155 to 156 °C. In addition, at SARS-CoV-2 M^pro, the pIC50 was under 4.00 and the pKi was under 4.00.
In turn, `O=c1c(O)c(-c2ccc(O)c(O)c2)oc2c([Se]c3ccccc3)c(O)c([Se]c3ccccc3)c(O)c12` [compound 3, 2-(3,4-Dihydroxyphenyl)-3,5,7-trihydroxy-6,8-bis(phenylselanyl)-4H-chromen-4-one] had a melting point of 206 to 210 °C. For the same compound, at SARS-CoV-2 M^pro, the negative logarithm of the IC50 (pIC50) is 4.89 and the pKi is 5.34. The “Inhibition … (CPE)” value in the data set on SARS-CoV-2 [2] (10 µM) is “-”. The “Inhibition … (CPE)” value in the data set on SARS-CoV-2 [2] (25 µM) is “-”. In the data set with SARS-CoV-2 [2] (50 µM), the “Inhibition … (CPE)” value was “tox/-”. Besides, in the data set on SARS-CoV-2 [2] (75 µM), the “Inhibition … (CPE)” value is listed as “tox”. Also, the “Inhibition … (CPE)” value in the data set on SARS-CoV-2 [2] (100 µM) is given as “tox”.
Compound `O=c1cc(-c2ccccc2)oc2c([Se]c3ccccc3)c(O)c([Se]c3ccccc3)c(O)c12` [compound 6, 5,7-Dihydroxy-2-phenyl-6,8-bis(phenylselanyl)-4H-chromen-4-one] yielded a melting point of 188.7 to 190.6 °C. In addition, on SARS-CoV-2 M^pro, the pIC50 is under 4.00, the pKi is under 4.00 and the “anti-M^pro inhibitory activity (in words)” value is reported as “devoid of any noticeable anti-M^pro inhibitory activity”.
Compound `O=c1cc(-c2ccccc2)oc2cc(OCC[Te]c3ccccc3)cc(O)c12` [compound 8, 5-Hydroxy-2-phenyl-7-[2-(phenyltellanyl)ethoxy]-4H-chromen-4-one] registered a melting point of 128 to 129 °C. On SARS-CoV-2 M^pro, the pIC50 is 5.48 and the pKi was 5.96. Also, in the data set with SARS-CoV-2 [2] (75 µM), the “Inhibition … (CPE)” value is “prec/tox”. In addition, in the data set with SARS-CoV-2 [2] (100 µM), the “Inhibition … (CPE)” value was “prec/tox”. Besides, in the data set on SARS-CoV-2 [2], the “toxicity in the cellular infection model (in words)” value was “toxic”, the “precipitation in the medium (in words)” value was “precipitated” and the “SARS-CoV-2-related CPE reduction (in words)” value is “No CPE reduction”.
For the compound `O=c1cc(-c2ccccc2)oc2cc(OCC[Te]c3ccc(Cl)cc3)cc(O)c12` [compound 9, 7-{2-[(4-Chlorophenyl)tellanyl]ethoxy}-5-hydroxy-2-phenyl-4H-chromen-4-one], the melting point lay in the range of 140.3 to 143 °C. On SARS-CoV-2 M^pro, the negative logarithm of the IC50 (pIC50) was 5.66 and the pKi was 6.11. Besides, the “Inhibition … (CPE)” value in the data set with SARS-CoV-2 [2] (10 µM) is given as “-”. Further, the “Inhibition … (CPE)” value in the data set with SARS-CoV-2 [2] (25 µM) was “-”. For the same compound, the “Inhibition … (CPE)” value in the data set with SARS-CoV-2 [2] (75 µM) is on record as “prec/-”. The “Inhibition … (CPE)” value in the data set on SARS-CoV-2 [2] (100 µM) is listed as “prec/tox”. In the data set with SARS-CoV-2 [2], the “toxicity in the cellular infection model (in words)” value is reported as “toxic”, the “precipitation in the medium (in words)” value is given as “precipitated” and the “SARS-CoV-2-related CPE reduction (in words)” value was “No CPE reduction”.

Values taken from publication PMC8268238, “Seleno-Functionalization of Quercetin Improves the Non-Covalent Inhibition of M^pro and Its Antiviral Activity in Cells against SARS-CoV-2” (International Journal of Molecular Sciences, 2021).
